According to article PMC11408249, “Non-invasive in vivo imaging of changes in Collagen III turnover in myocardial fibrosis” (npj Imaging, 2024):

Target: T1, COL3 (Homo sapiens, UniProt P02461)
T1 sequence (P02461 154-1221 limits assumed): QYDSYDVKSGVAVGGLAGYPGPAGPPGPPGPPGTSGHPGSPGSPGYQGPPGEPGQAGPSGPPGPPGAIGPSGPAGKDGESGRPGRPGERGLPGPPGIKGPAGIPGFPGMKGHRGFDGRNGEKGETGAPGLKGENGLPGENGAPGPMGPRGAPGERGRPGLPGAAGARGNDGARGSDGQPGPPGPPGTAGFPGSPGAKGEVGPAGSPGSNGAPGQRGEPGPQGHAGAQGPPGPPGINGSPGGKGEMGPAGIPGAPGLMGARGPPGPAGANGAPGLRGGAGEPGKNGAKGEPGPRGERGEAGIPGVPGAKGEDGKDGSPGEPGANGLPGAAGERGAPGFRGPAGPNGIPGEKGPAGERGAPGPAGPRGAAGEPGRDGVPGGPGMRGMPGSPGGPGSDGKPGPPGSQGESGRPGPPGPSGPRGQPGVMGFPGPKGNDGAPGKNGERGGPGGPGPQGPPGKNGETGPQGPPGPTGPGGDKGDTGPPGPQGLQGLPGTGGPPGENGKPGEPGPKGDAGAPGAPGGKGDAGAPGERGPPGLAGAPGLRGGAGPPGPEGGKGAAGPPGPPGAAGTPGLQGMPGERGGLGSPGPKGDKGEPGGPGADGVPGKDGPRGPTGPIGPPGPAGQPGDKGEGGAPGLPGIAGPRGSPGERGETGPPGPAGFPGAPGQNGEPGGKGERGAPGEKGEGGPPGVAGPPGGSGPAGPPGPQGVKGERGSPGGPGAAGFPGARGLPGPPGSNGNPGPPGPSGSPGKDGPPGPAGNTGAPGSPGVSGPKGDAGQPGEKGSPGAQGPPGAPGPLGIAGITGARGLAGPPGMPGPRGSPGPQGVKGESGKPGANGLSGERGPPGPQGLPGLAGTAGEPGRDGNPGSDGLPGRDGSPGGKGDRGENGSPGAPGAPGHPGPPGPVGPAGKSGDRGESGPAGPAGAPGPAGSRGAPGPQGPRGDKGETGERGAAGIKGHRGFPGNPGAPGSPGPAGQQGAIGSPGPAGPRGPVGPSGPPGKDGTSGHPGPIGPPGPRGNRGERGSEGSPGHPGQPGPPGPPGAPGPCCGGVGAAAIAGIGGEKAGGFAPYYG
Assay: Competition assay: Gd(III) tetrameric probe displaces Eu(III) monomeric probe from COL3
Type: binding
Conditions: 5 µM Eu(III) monomeric probe, Gd tetrameric probe 0.01–200 µM, 1 h room temperature
Description: The binding interactions of the tetrameric Gd(III)-labelled probes with COL3 were studied by a competition assay, as Gd(III) is not suitable for TRF based assays. In competition assays, the binding of the Gd(III)-labelled tetrameric probe of interest to the target protein was measured by competition with the corresponding Eu(III)-labelled monomeric probe. Specifically, a row of wells was coated with collagen (COL3) and added with a constant amount of the Eu(III)-labelled probe of interest (e.g. Eu-DOTAMA-CBP1). Wells were then added and incubated with increasing concentrations of the corresponding tetrameric Gd(III)-labelled probes (e.g. [Gd-DOTAMA]4-CBP1). Displacement curves were then obtained by plotting the residual Eu(III) TRF against the concentration of the Gd(III)-labelled probe. Briefly, eight solutions were made containing a fixed concentration of Eu(III)-monomeric probe (5 µM) and increasing concentrations of the Gd-tetrameric probe (0.01–200 µM). Plates pre-coated with COL3 were simultaneously incubated with both compounds for 1 h at room temperature (triplicate wells per plate and 3 independent plates). After the incubation, the Eu(III) TRF assay protocol including the acid extraction and enhancement solution steps were used to measure the binding of the monomeric probe in the presence of the competing tetrameric probe, as previously described. […]

## Ac-C-TEFPLRMRDWLKN [[Gd-DOTAMA]4-CBP2, tetrameric probe: tri-lysine scaffold bearing four Gd-DOTAMA units conjugated at the N-terminus of CBP2]
  displacement of the monomeric Eu(III)-labelled counterpart from COL3 (in words): can be observed only at very high concentrations

## Ac-C-RDKKVAEQS [[Gd-DOTAMA]4-SccCBP1, scrambled tetrameric Gd probe (Ac-C-…), negative control]
  displacement of the monomeric Eu(III)-labelled counterpart from COL3 (in words): cannot
